Measured values published in patent US12365655B2, “Compounds” (CTXT PTY LTD, priority 2018, dated 2025).

Assays:
MOF-KAT8 = target: T1, MOF-KAT8 (Homo sapiens, UniProt Q9H7Z6); experiment: biochemical
T1 sequence (Q9H7Z6 with tags, fused parts or gaps): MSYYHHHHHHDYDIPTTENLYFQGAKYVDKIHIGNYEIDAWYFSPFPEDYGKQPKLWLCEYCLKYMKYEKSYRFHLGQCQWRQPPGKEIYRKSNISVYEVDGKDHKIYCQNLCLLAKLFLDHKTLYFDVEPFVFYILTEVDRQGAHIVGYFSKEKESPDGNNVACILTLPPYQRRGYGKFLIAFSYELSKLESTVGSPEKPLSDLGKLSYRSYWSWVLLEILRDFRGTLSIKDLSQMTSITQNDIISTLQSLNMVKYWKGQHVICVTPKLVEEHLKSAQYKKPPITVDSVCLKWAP

MOZ-KAT6A = MOZ-KAT6A (Homo sapiens, UniProt Q92794, A567V); experiment: Acetyltransferase biochemical assay (AlphaScreen), KAT6A
MOZ-KAT6A, sequence (Q92794 with tags, fused parts or gaps A567V): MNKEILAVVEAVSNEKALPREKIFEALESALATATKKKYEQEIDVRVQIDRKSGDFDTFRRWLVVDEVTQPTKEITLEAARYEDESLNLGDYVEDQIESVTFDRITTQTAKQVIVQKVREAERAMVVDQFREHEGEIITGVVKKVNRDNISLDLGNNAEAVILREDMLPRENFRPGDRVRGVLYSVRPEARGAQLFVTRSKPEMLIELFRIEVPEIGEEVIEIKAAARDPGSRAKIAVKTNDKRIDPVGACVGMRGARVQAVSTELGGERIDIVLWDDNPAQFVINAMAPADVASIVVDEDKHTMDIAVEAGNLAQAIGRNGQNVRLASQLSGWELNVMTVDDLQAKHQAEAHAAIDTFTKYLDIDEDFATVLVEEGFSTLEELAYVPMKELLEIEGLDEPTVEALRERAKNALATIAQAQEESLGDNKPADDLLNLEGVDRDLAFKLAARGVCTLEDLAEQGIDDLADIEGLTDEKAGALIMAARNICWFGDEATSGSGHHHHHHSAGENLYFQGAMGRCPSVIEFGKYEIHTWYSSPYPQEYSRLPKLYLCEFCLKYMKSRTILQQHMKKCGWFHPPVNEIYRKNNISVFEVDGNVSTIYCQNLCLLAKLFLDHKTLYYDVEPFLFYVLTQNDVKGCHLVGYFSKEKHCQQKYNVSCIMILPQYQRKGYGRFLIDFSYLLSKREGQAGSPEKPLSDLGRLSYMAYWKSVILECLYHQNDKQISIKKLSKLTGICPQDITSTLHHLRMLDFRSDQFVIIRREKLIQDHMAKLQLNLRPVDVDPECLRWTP

HBO-KAT7 = HBO-KAT7 (Homo sapiens, UniProt O95251); experiment: Acetyltransferase biochemical assay (AlphaScreen), KAT7
HBO-KAT7, sequence (O95251 with tags, fused parts or gaps): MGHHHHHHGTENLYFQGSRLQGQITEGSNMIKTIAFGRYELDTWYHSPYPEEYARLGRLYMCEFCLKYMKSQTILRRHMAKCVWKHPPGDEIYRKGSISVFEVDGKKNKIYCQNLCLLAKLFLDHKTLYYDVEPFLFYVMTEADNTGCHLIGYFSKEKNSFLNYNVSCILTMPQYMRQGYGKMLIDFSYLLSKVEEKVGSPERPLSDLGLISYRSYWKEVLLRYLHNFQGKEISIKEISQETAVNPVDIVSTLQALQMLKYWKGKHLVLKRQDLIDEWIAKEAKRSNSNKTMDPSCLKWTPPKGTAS

TIP60-KAT5 = TIP60-KAT5 (Homo sapiens, UniProt Q92993); experiment: Acetyltransferase biochemical assay (AlphaScreen), KAT5
TIP60-KAT5, sequence (Q92993 with tags, fused parts or gaps isoform Q92993-2): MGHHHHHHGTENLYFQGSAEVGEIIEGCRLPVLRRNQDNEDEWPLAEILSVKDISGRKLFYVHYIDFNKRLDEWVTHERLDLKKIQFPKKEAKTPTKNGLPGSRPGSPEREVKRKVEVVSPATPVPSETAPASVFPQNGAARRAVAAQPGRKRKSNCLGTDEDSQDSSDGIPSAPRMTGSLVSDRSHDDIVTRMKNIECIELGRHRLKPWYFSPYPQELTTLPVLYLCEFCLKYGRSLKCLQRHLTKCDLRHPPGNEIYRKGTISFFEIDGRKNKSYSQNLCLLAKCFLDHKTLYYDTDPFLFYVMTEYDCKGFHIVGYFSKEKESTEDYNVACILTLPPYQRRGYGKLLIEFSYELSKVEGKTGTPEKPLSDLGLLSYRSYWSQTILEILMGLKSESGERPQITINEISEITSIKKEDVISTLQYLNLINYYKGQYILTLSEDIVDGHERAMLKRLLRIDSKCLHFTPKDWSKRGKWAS

Structure (SMILES)	IC50 (MOF-KAT8)	IC50 (MOZ-KAT6A)	IC50 (HBO-KAT7)	IC50 (TIP60-KAT5)
CCOc1cccc2c(NS(=O)(=O)c3cc(CC)ccc3OC)noc12 [Example 132]	15.3 µM	7.45 µM	11.8 µM	53 µM
COc1cccc(OCc2cnn(C)c2)c1S(=O)(=O)Nc1noc2cccc(OC)c12 [Example 221, 2-Methoxy-N-(4-methoxybenzo[d]isoxazol-3-yl)-6-((1-methyl-1H-pyrazol-4-yl)methoxy)benzenesulfonamide]	27.9 µM	37.5 µM	63.7 µM	> 125 µM
O=S(=O)(Nc1noc2cccc(Cl)c12)c1ccccc1-c1cnco1 [Example 11, N-(4-chlorobenzo [d]isoxazol-3-yl)-2-(oxazol-5-yl)benzenesulfonamide]	35.6 µM	> 125 µM	60.5 µM	> 125 µM
COc1cccc(OC)c1S(=O)(=O)Nc1noc2cccc(N)c12 [Example 224]	113 µM	50.4 µM	> 125 µM	> 125 µM
CS(=O)(=O)c1ccc(S(=O)(=O)Nc2noc3cccc(Cl)c23)cc1 [Example 21, N-(4-chlorobenzo [d]isoxazol-3-yl)-4-(methylsulfonyl) benzenesulfonamide]	39.7 µM	24.8 µM	25.5 µM	> 125 µM
Cc1ccc(-n2cccn2)cc1S(=O)(=O)Nc1noc2cccc(Cl)c12 [Example 20, N-(4-chlorobenzo [d]isoxazol-3-yl)-2-methyl-5-(1H-pyrazol-1-yl)benzenesulfonamide]	61.4 µM	29.4 µM	41.3 µM	81.5 µM
CCc1ccc(OC)c(S(=O)(=O)Nc2noc3ccc(OC)cc23)c1 [Example 111, 5-Ethyl-2-methoxy-N-(5-methoxybenzo[d]isoxazol-3-yl)benzenesulfonamide]	3.22 µM	0.842 µM	4.54 µM	26.6 µM
O=S(=O)(Nc1noc2cccc(Cl)c12)c1ccccc1 [Example 151, N-(4-chlorobenzo[d]isoxazol-3-yl)benzenesulfonamide]	34.7 µM	27.9 µM	25.6 µM	> 125 µM
COc1ccc(S(=O)(=O)Nc2noc3ccc(C)cc23)c(OC)c1 [Example 170, 2,4-dimethoxy-N-(5-methylbenzo[d]isoxazol-3-yl)benzenesulfonamide]	9.67 µM	1.5 µM	0.982 µM	4.83 µM
COCc1cc(OC)c2c(NS(=O)(=O)c3c(OC)cccc3OC)noc2c1Cl [Example 161]	118 µM	1.87 µM	2.51 µM	> 125 µM
CNc1cccc(OC)c1S(=O)(=O)Nc1noc2cccc(OC)c12 [Example 214, 2-Methoxy-N-(4-methoxybenzo[d]isoxazol-3-yl)-6-(methylamino)benzenesulfonamide]	> 125 µM	36.4 µM	> 125 µM	> 125 µM
COCc1cc2onc(NS(=O)(=O)c3cccnc3)c2cc1C [Example 165, N-(6-(methoxymethyl)-5-methylbenzo[d]isoxazol-3-yl)pyridine-3-sulfonamide]	> 125 µM	99.9 µM	30.7 µM	> 125 µM
CCc1ccc(OC)c(S(=O)(=O)Nc2noc3cccc(Cl)c23)c1 [Example 154]	2.57 µM	0.516 µM	3.13 µM	25.3 µM
COc1cccc(OC)c1S(=O)(=O)Nc1noc2ccc(OC(F)(F)F)cc12 [Example 100, 2,6-Dimethoxy-N-(5-(trifluoromethoxy)benzo [d]isoxazol-3-yl)benzenesulfonamide]	62.6 µM	0.972 µM	2.24 µM	51.7 µM
CCOc1ccc2onc(NS(=O)(=O)c3cc(CC)ccc3OC)c2c1 [Example 109]	9.12 µM	1.21 µM	4.07 µM	69.3 µM
COc1cccc(OC)c1S(=O)(=O)Nc1noc2cccc([N+](=O)[O-])c12 [Example 223, 2,6-Dimethoxy-N-(4-nitrobenzo[d]isoxazol-3-yl)benzenesulfonamide]	42.4 µM	25.5 µM	43.5 µM	> 125 µM

Structure (SMILES)	IC50 (MOF-KAT8)	IC50 (MOZ-KAT6A)	IC50 (HBO-KAT7)	IC50 (TIP60-KAT5)
CCc1ccc2onc(NS(=O)(=O)c3cc4c(cc3OC)CCCC4)c2c1 [Example 204, N-(5-Ethylbenzo[d]isoxazol-3-yl)-3-methoxy-5,6,7,8-tetrahydronaphthalene-2-sulfonamide]	3.06 µM	0.4 µM	3.05 µM	4.57 µM
Cc1ccc(-c2ccno2)cc1S(=O)(=O)Nc1noc2cccc(Cl)c12 [Example 19, N-(4-chlorobenzo [d]isoxazol-3-yl)-5-(isoxazol-5-yl)-2-methylbenzenesulfonamide]	41 µM	32.2 µM	36.1 µM	65 µM
COCc1cc2onc(NS(=O)(=O)c3ccc(OC)nc3)c2cc1C [Example 164, 6-methoxy-N-(6-(methoxymethyl)-5-methylbenzo[d]isoxazol-3-yl)pyridine-3-sulfonamide]	> 125 µM	27.2 µM	61.6 µM	> 125 µM
COc1cc2c(cc1S(=O)(=O)Nc1noc3ccc(C4CC4)cc13)CCCC2 [Example 205, N-(5-Cyclopropylbenzo[d]isoxazol-3-yl)-3-methoxy-5,6,7,8-tetrahydronaphthalene-2-sulfonamide]	3.44 µM	0.115 µM	0.936 µM	3.73 µM
Cc1ncc(-c2ccc(C)c(S(=O)(=O)Nc3noc4cccc(Cl)c34)c2)o1 [Example 18, N-(4-chlorobenzo [d]isoxazol-3-yl)-2-methyl-5-(2-methyloxazol-5-yl)benzenesulfonamide]	63.5 µM	74.9 µM	34.1 µM	118 µM
CCc1ccc(OC)c(S(=O)(=O)Nc2noc3cccc(OC)c23)c1OC [Example 94, 3-Ethyl-2,6-dimethoxy-N-(4-methoxybenzo[d]isoxazol-3-yl)benzenesulfonamide]	60.9 µM	6.11 µM	16.1 µM	124 µM
COc1cc(COc2cccc(OC)c2S(=O)(=O)Nc2noc3cccc(OC)c23)ccn1 [Example 216, 2-Methoxy-N-(4-methoxybenzo[d]isoxazol-3-yl)-6-((2-methoxypyridin-4-yl)methoxy)benzenesulfonamide]	11.2 µM	0.625 µM	3.11 µM	124 µM
COc1cccc(OCC(N)=O)c1S(=O)(=O)Nc1noc2cccc(OC)c12 [Example 219, 2-(3-Methoxy-2-(N-(4-methoxybenzo[d]isoxazol-3-yl)sulfamoyl)phenoxy)acetamide]	69.9 µM	33.3 µM	60.7 µM	> 125 µM
CCc1cc(S(=O)(=O)Nc2noc3cccc(Cl)c23)c(=O)n(C)c1 [Example 107, N-(4-Chlorobenzo[d]isoxazol-3-yl)-5-ethyl-1-methyl-2-oxo-1,2-dihydropyridine-3-sulfonamide]	42.1 µM	14.9 µM	11.7 µM	74.1 µM
COc1cccc2onc(NS(=O)(=O)c3cccc4ccoc34)c12 [Example 81, N-(4-methoxybenzo[d]isoxazol-3-yl)benzofuran-7-sulfonamide]	9.43 µM	43.6 µM	6.73 µM	31.5 µM
COc1cccc(OC)c1S(=O)(=O)Nc1noc2cc(C(C)OC)cc(OC)c12 (stereo not shown) [Example 93, 2,6-Dimethoxy-N-(4-methoxy-6-(1-methoxyethyl)benzo[d]isoxazol-3-yl)benzenesulfonamide]	96.5 µM	0.181 µM	2.8 µM	53.1 µM
O=S(=O)(Nc1noc2cccc(Cl)c12)c1ccc(Cl)cc1 [Example 26, 4-chloro-N-(4-chlorobenzo[d]isoxazol-3-yl)benzenesulfonamide]	29.5 µM	60.1 µM	34.5 µM	> 125 µM
O=S(=O)(Nc1noc2ccccc12)c1cccc(-c2ccccc2)c1 [Example 70, N-(benzo[d]isoxazol-3-yl)-[1,1-biphenyl]-3-sulfonamide]		31.3 µM	32 µM	36.8 µM
COc1cccc2onc(NS(=O)(=O)c3c(C)ccc4cccnc34)c12 [Example 77, N-(4-methoxybenzo[d]isoxazol-3-yl)-7-methyl quinoline-8-sulfonamide]		10.8 µM	12 µM	51.8 µM
CC(C)(C)c1ccc(S(=O)(=O)Nc2noc3cccc(Cl)c23)cc1 [Example 25, 4-(tert-butyl)-N-(4-chlorobenzo[d]isoxazol-3-yl)benzenesulfonamide]		33.2 µM	41.9 µM	120 µM
